Test results reported in ChEMBL document CHEMBL1151894, “Novel immunoconjugates comprised of streptonigrin and 17-amino-geldanamycin attached via a dipeptide-p-aminobenzyl-amine linker system” (Bioorg Med Chem Lett, 2009).

Tests used:
Type in all cases: functional, cell-based
[1] = Cytotoxicity against CD30 expressing and CD70 deficient human L540cy cells after 96 hrs by resazurin conversion assay
[2] = tested on: KARPAS-299; test: Cytotoxicity against CD30 expressing and CD70 deficient human KARPAS299 cells after 96 hrs by resazurin conversion assay; details: KARPAS-299, 96 h
[3] = tested on: CAKI-1; test: Cytotoxicity against CD30 deficient and CD70 expressing human Caki1 cells after 96 hrs by resazurin conversion assay; details: CAKI-1, 96 h

COC1=C(N)C(=O)c2nc(-c3nc(C(=O)O)c(C)c(-c4ccc(OC)c(OC)c4O)c3N)ccc2C1=O [STREPTONIGRIN]
IC50 [1]: 0.8 nM | IC50 [2]: 0.4 nM | IC50 [3]: 0.4 nM
